Consider six compounds from patent US20090209460A1, “COMPOSITIONS AND METHODS FOR TREATING OBESITY AND RELATED METABOLIC DISORDERS” (Amylin Pharmaceuticals, Inc., priority 2005, published 2009).

For one series, the system named is NIH/Swiss mice. Description: acute food intake assay, lean overnight-fasted NIH/Swiss mice, intraperitoneal injection. The series is classed as in vivo, mouse. As to conditions: for Food Intake Inhibition: mouse assay, dose of 200 mg/kg, measured at 60 minutes. How it is done:
The effect of NMX Peptides, FNX Peptides or NMX Receptor agonists on food intake when systemically administered was investigated using an acute food intake assay. This assay measured food consumption in lean subjects. Lean, group-housed, overnight-fasted NIH/Swiss mice. All in vivo tests were performed with peripheral injections of peptide. […] The dose-response data are presented herein. The protocol is described below. Female NIH/Swiss mice (8-24 weeks old) were group housed with a 12:12 hour light:dark cycle, with lights on at 0300. Water and a standard pelleted mouse chow diet are available ad libitum, except as noted. Animals are fasted starting at approximately 1530 hrs, 1 day prior to experiment. At time=0 min, all animals are given an intraperitoneal injection of vehicle or polypeptide in a volume of 200 uL/mouse and immediately given a pre-weighed amount (10-15 g) of the standard chow. Food is removed and weighed at 30, 60, and 120 minutes to determine the amount of food consumed. The effects of treatment on food intake are expressed as % change relative to control.

Series [1] is described as follows: body weight and food intake in mice with diet induced obesity (mouse DIO), osmotic pump. The series is classed as in vivo. How it is done: The effect of FN38 and related compounds on body weight and food intake in obese subjects was investigated. Mice having diet induced obesity (DIO) were used. All in vivo tests were performed with peripheral injections of peptide. […] 4-week-old male C57BL/6 mice were group housed with water and a standard pelleted mouse chow diet available ad libitum, except as noted, and were maintained on a on a high fat diet (58% kcal from fat) for 4 weeks prior to the experiment. At the end of fattening period, osmotic pumps were implanted interscapularly under anesthesia. Mice received pumps continuously delivering vehicle (50% DMSO in water or saline) or polypeptide at the dose indicated. Food intake and body weight measurements were obtained weekly.

Series [2] in a line: brush border membrane (BBM) stability assay. The series is classed as in vitro ADME, human. As to conditions: brush border membrane extract (e.g. kidney); percent compound remaining after a 5 hour incubation, human brush border membrane assay; read-out: hBBM. How it is done:
Some exemplary NMX Peptides and FNX Peptides were tested for stability in a brush border membrane (BBM) assay as described herein. To determine the enzymatic stability of peptide hormones peptides are incubated with a preparation of human brush border membranes extract (e.g., kidney), and the stability of the peptide is determined by measuring concentration of the intact peptide at specific intervals. The brush border membrane extract contains dipeptidyl peptidase IV (DPP-IV), neutral endopeptidases, peptidyl-dipeptidase A, carboxypeptidases and aminopeptidases. These are the primary enzymes that degrade peptides in vivo and are found in the kidneys, liver, lungs and pancreas. Resistance against these human proteases would increase peptide half-life. In the BBM assay test peptide was subjected to digestion over a period of five (5) hours with human brush border membrane extracts, e.g. kidney, at 37° C. At desired timepoints digestion was stopped by addition of quench solution, typically 50% ACN, 1% FA. After centrifugation to remove membrane debris, supernatant was subjected to mass spectrometry using a selected ion scan for the intact molecule of interest. Values are expressed as a percent of stable. A value of at least 80 or greater is regarded as an extremely stable molecule. A value of at least 70 or greater is a molecule with significant stability.

Residues, ends and D or L forms follow the SMILES beside them.

`CC[C@H](C)[C@H](NC(=O)[C@@H](NC(=O)CNC(=O)CNC(=O)[C@@H]1CCCN1C(=O)[C@@H](NC(=O)[C@H](CCC(N)=O)NC(=O)[C@@H](NC(=O)[C@H](CCC(=O)O)NC(=O)[C@H](CCC(=O)O)NC(=O)[C@H](CC(=O)O)NC(=O)[C@@H](N)CO)C(C)C)C(C)C)C(C)C)C(=O)N[C@@H](CO)C(=O)N[C@@H](CC(N)=O)C(=O)NCC(=O)N[C@@H](Cc1ccc(O)cc1)C(=O)N[C@@H](Cc1ccccc1)C(=O)N[C@@H](CC(C)C)C(=O)N[C@@H](Cc1ccccc1)C(=O)N[C@@H](CCCNC(=N)N)C(=O)N1CCC[C@H]1C(=O)N[C@@H](CCCNC(=N)N)C(=O)N[C@@H](CC(N)=O)C(N)=O` [Compound 163452, reference compound] (H-SDEEVQVPGGVISNGYFLFRPRN-NH2; N-terminus assumed): the “reduction of food intake” value in the series with NIH/Swiss mice (administered systemically (i.p. to mice), dose and time not stated) is given as “up to 95%”. The “FI (60′, 200)” value with NIH/Swiss mice (food intake, % change relative to control, 60 min, dose 200) is recorded as −88%. In addition, the “ED50 at t = 60” value with NIH/Swiss mice (food intake, t = 60) was found to be 0.022 mg/kg. The “ED50 for effect on food intake” value in the series with NIH/Swiss mice (over 30 min, i.p., mice) turned out to be 9.0 nmol/kg. Besides, the “body weight gain and food intake in the DIO assay” value in series [1] (75 nmol/kg/day) is “decreased body weight gain and food intake”. Also, the “long acting effect in mouse DIO” value in series [1] (mouse DIO) is listed as “did not have a long acting effect”. In addition, in series [1] (mouse DIO, day 14), the “d 14 BWt loss” value is 1.5%.

In the case of `CC(C)C[C@H](NC(=O)[C@H](CCCCN)NC(=O)[C@H](CCC(N)=O)NC(=O)[C@@H](NC(=O)[C@H](CCCCN)NC(=O)[C@H](CO)NC(=O)[C@@H](N)Cc1ccc(O)cc1)[C@@H](C)O)C(=O)NCC(=O)N[C@@H](CCCCN)C(=O)N[C@@H](CO)C(=O)N[C@@H](CC(N)=O)C(=O)N[C@H](C(=O)N[C@H](C(=O)N[C@@H](CCC(=O)O)C(=O)N[C@@H](CCC(=O)O)C(=O)N[C@@H](CC(C)C)C(=O)N[C@@H](CCC(N)=O)C(=O)N[C@@H](CO)C(=O)N1CCC[C@H]1C(=O)N[C@@H](Cc1ccccc1)C(=O)N[C@@H](C)C(=O)N[C@@H](CO)C(=O)N[C@@H](CCC(N)=O)C(=O)N[C@@H](CO)C(=O)N[C@@H](CCCNC(=N)N)C(=O)NCC(=O)N[C@@H](Cc1ccc(O)cc1)C(=O)N[C@@H](Cc1ccccc1)C(=O)N[C@@H](CC(C)C)C(=O)N[C@@H](Cc1ccccc1)C(=O)N[C@@H](CCCNC(=N)N)C(=O)N1CCC[C@H]1C(=O)N[C@@H](CCCNC(=N)N)C(=O)N[C@@H](CC(N)=O)C(N)=O)C(C)C)C(C)C` [Des-(Phe1,Leu2,Phe3,His4)FN38] (H-YSKTQKLGKSNVVEELQSPFASQSRGYFLFRPRN-NH2; N-terminus assumed), the “Food Intake Inhibition” value in the series with NIH/Swiss mice is −58%. The remaining at 5 h in series [2] was 41%.

Take `CC(C)C[C@H](NC(=O)[C@H](CCC(=O)O)NC(=O)[C@H](CCC(=O)O)NC(=O)[C@@H](NC(=O)[C@@H](NC(=O)[C@H](CC(N)=O)NC(=O)[C@H](CO)NC(=O)[C@H](CCCCN)NC(=O)CNC(=O)[C@H](CC(C)C)NC(=O)[C@@H](N)CCCCN)C(C)C)C(C)C)C(=O)N[C@@H](CCC(N)=O)C(=O)N[C@@H](CO)C(=O)N1CCC[C@H]1C(=O)N[C@@H](Cc1ccccc1)C(=O)N[C@@H](C)C(=O)N[C@@H](CO)C(=O)N[C@@H](CCC(N)=O)C(=O)N[C@@H](CO)C(=O)N[C@@H](CCCNC(=N)N)C(=O)NCC(=O)N[C@@H](Cc1ccc(O)cc1)C(=O)N[C@@H](Cc1ccccc1)C(=O)N[C@@H](CC(C)C)C(=O)N[C@@H](Cc1ccccc1)C(=O)N[C@@H](CCCNC(=N)N)C(=O)N1CCC[C@H]1C(=O)N[C@@H](CCCNC(=N)N)C(=O)N[C@@H](CC(N)=O)C(N)=O` [Des-(Phe1-Gln9)FN38] (H-KLGKSNVVEELQSPFASQSRGYFLFRPRN-NH2; N-terminus assumed): in the series with NIH/Swiss mice, the “Food Intake Inhibition” value is recorded as −70%. In addition, in series [2], the remaining at 5 h is 55%.

As for `CC(C)C[C@H](NC(=O)[C@H](CCCCN)NC(=O)[C@H](CCC(N)=O)NC(=O)[C@@H](NC(=O)[C@H](CCCCN)NC(=O)[C@H](CO)NC(=O)[C@H](Cc1ccc(O)cc1)NC(=O)[C@H](Cc1c[nH]cn1)NC(=O)[C@H](Cc1ccccc1)NC(=O)[C@H](CC(C)C)NC(=O)[C@@H](N)Cc1ccccc1)[C@@H](C)O)C(=O)NCC(=O)N[C@@H](CCCCN)C(=O)N[C@@H](CO)C(=O)N[C@@H](CC(N)=O)C(=O)N[C@H](C(=O)N[C@H](C(=O)N[C@@H](CCC(=O)O)C(=O)N[C@@H](CCC(=O)O)C(=O)N[C@@H](CC(C)C)C(=O)N[C@@H](CCC(N)=O)C(=O)N[C@@H](CO)C(=O)N1CCC[C@H]1C(=O)N[C@@H](CO)C(=O)N[C@@H](CCCNC(=N)N)C(=O)NCC(=O)N[C@@H](Cc1ccc(O)cc1)C(=O)N[C@@H](Cc1ccccc1)C(=O)N[C@@H](CC(C)C)C(=O)N[C@@H](Cc1ccccc1)C(=O)N[C@@H](CCCNC(=N)N)C(=O)N1CCC[C@H]1C(=O)N[C@@H](CCCNC(=N)N)C(=O)N[C@@H](CC(N)=O)C(N)=O)C(C)C)C(C)C` [Des-(Phe24,Ala25,Ser26,Gln27)-FN38] (H-FLFHYSKTQKLGKSNVVEELQSPSRGYFLFRPRN-NH2; N-terminus assumed), in the series on NIH/Swiss mice, the “Food Intake Inhibition” value is given as −83%. The remaining at 5 h in series [2] turned out to be 61%.

As for `CC(C)C[C@H](NC(=O)[C@H](CCCCN)NC(=O)[C@H](Cc1ccc(O)cc1)NC(=O)[C@H](Cc1c[nH]cn1)NC(=O)[C@H](Cc1ccccc1)NC(=O)[C@H](CC(C)C)NC(=O)[C@@H](N)Cc1ccccc1)C(=O)NCC(=O)N[C@@H](CCCCN)C(=O)N[C@@H](CO)C(=O)N[C@@H](CC(N)=O)C(=O)N[C@H](C(=O)N[C@H](C(=O)N[C@@H](CCC(=O)O)C(=O)N[C@@H](CCC(=O)O)C(=O)N[C@@H](CC(C)C)C(=O)N[C@@H](CCC(N)=O)C(=O)N[C@@H](CO)C(=O)N1CCC[C@H]1C(=O)N[C@@H](Cc1ccccc1)C(=O)N[C@@H](C)C(=O)N[C@@H](CO)C(=O)N[C@@H](CCC(N)=O)C(=O)N[C@@H](CO)C(=O)N[C@@H](CCCNC(=N)N)C(=O)NCC(=O)N[C@@H](Cc1ccc(O)cc1)C(=O)N[C@@H](Cc1ccccc1)C(=O)N[C@@H](CC(C)C)C(=O)N[C@@H](Cc1ccccc1)C(=O)N[C@@H](CCCNC(=N)N)C(=O)N1CCC[C@H]1C(=O)N[C@@H](CCCNC(=N)N)C(=O)N[C@@H](CC(N)=O)C(N)=O)C(C)C)C(C)C` [Des-(Ser6,Lys7,Thr8,Gln9)FN38] (H-FLFHYKLGKSNVVEELQSPFASQSRGYFLFRPRN-NH2; N-terminus assumed), the “Food Intake Inhibition” value in the series on NIH/Swiss mice was −72%. The remaining at 5 h in series [2] is 28%.

As to `CC(C)C[C@H](NC(=O)[C@H](CCCCN)NC(=O)[C@H](CCC(N)=O)NC(=O)[C@@H](NC(=O)[C@H](CCCCN)NC(=O)[C@H](CO)NC(=O)[C@H](Cc1ccc(O)cc1)NC(=O)[C@H](Cc1c[nH]cn1)NC(=O)[C@H](Cc1ccccc1)NC(=O)[C@H](CC(C)C)NC(=O)[C@@H](N)Cc1ccccc1)[C@@H](C)O)C(=O)NCC(=O)N[C@@H](CCCCN)C(=O)N[C@@H](CO)C(=O)N[C@@H](CC(N)=O)C(=O)N[C@@H](CCC(=O)O)C(=O)N[C@@H](CCC(=O)O)C(=O)N[C@@H](CC(C)C)C(=O)N[C@@H](CCC(N)=O)C(=O)N[C@@H](CO)C(=O)N1CCC[C@H]1C(=O)N[C@@H](Cc1ccccc1)C(=O)N[C@@H](C)C(=O)N[C@@H](CO)C(=O)N[C@@H](CCC(N)=O)C(=O)N[C@@H](CO)C(=O)N[C@@H](CCCNC(=N)N)C(=O)NCC(=O)N[C@@H](Cc1ccc(O)cc1)C(=O)N[C@@H](Cc1ccccc1)C(=O)N[C@@H](CC(C)C)C(=O)N[C@@H](Cc1ccccc1)C(=O)N[C@@H](CCCNC(=N)N)C(=O)N1CCC[C@H]1C(=O)N[C@@H](CCCNC(=N)N)C(=O)N[C@@H](CC(N)=O)C(N)=O` [Des-Val16,Val17-FN38] (H-FLFHYSKTQKLGKSNEELQSPFASQSRGYFLFRPRN-NH2; N-terminus assumed), in the series with NIH/Swiss mice, the “Food Intake Inhibition” value was −60%. In series [2], the remaining at 5 h amounted to 73%.
